According to PubChem BioAssay AID248 (DTP/NCI, 2004):
Several values for one entry are separate records, joined by “and”; a condition that tells them apart may be missing. Equal entries are not always repeated. Toxic doses and inconclusive results are not listed. No stated cut-off is given here; in the data, active means T/C of 150% or more; inactive means T/C below 125%.

Tested on: L1210 leukemia ip in BDF1 mice, survival T/C
Test: NCI In Vivo Anticancer Drug Screen. Data for tumor model L1210 Leukemia (intraperitoneal) in B6D2F1 (BDF1) mice
Conditions: endpoint: mean survival time, higher = longer survival
Summary of the method: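 Antitumor effect is assessed in tumor-bearing animals. Survival in the compound arm is compared with a vehicle-dosed control arm and expressed as their quotient.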

[1] = dose: 50.0 mg/kg/injection, schedule: Q01DX009 (ip), vehicle: saline
[2] = dose: 100.0 mg/kg/injection, schedule: Q01DX001 (ip), vehicle: saline with Tween-80
[3] = dose: 100.0 mg/kg/injection, schedule: Q01DX009 (ip), vehicle: saline with Tween-80
[4] = dose: 200.0 mg/kg/injection, schedule: Q01DX001 (ip), vehicle: saline with Tween-80
[5] = dose: 200.0 mg/kg/injection, schedule: Q01DX009 (ip), vehicle: saline with Tween-80
[6] = dose: 100.0 mg/kg/injection, schedule: Q01DX009 (ip), vehicle: water
[7] = dose: 200.0 mg/kg/injection, schedule: Q01DX009 (ip), vehicle: water
[8] = dose: 400.0 mg/kg/injection, schedule: Q01DX009 (ip), vehicle: water
[9] = dose: 100.0 mg/kg/injection, schedule: Q01DX009 (ip), vehicle: Klucel (hydroxypropylcellulose) (HPC)
[10] = dose: 100.0 mg/kg/injection, schedule: Q04DX003 (ip), vehicle: Klucel (hydroxypropylcellulose) (HPC)
[11] = dose: 200.0 mg/kg/injection, schedule: Q04DX003 (ip), vehicle: Klucel (hydroxypropylcellulose) (HPC)
[12] = dose: 400.0 mg/kg/injection, schedule: Q04DX003 (ip), vehicle: Klucel (hydroxypropylcellulose) (HPC)
[13] = dose: 50.0 mg/kg/injection, schedule: Q01DX009 (ip), vehicle: Klucel (hydroxypropylcellulose) (HPC)
[14] = dose: 100.0 mg/kg/injection, schedule: Q01DX001 (ip), vehicle: saline
[15] = dose: 200.0 mg/kg/injection, schedule: Q01DX001 (ip), vehicle: saline
[16] = dose: 400.0 mg/kg/injection, schedule: Q01DX001 (ip), vehicle: saline
[17] = dose: 100.0 mg/kg/injection, schedule: Q04DX003 (ip), vehicle: saline with Tween-80
[18] = dose: 200.0 mg/kg/injection, schedule: Q04DX003 (ip), vehicle: saline with Tween-80
[19] = dose: 400.0 mg/kg/injection, schedule: Q04DX003 (ip), vehicle: saline with Tween-80

Measured: T/C

NC(=O)N(Cc1ccccc1)N=O
inactive: dose: 6.25 mg/kg/injection, schedule: Q01DX Z (ip), vehicle: carboxymethylcellulose (CMC) 101 % of control | dose: 12.5 mg/kg/injection, schedule: Q01DX Z (ip), vehicle: carboxymethylcellulose (CMC) 116 % of control | dose: 25.0 mg/kg/injection, schedule: Q01DX Z (ip), vehicle: carboxymethylcellulose (CMC) 104 % of control | dose: 50.0 mg/kg/injection, schedule: Q01DX Z (ip), vehicle: carboxymethylcellulose (CMC) 110 % of control | dose: 100.0 mg/kg/injection, schedule: Q01DX Z (ip), vehicle: carboxymethylcellulose (CMC) 116 % of control

Cc1nc(C(=O)O)cs1
inactive: [1] 95 % of control | dose: 50.0 mg/kg/injection, schedule: Q04DX003 (ip), vehicle: acetone 90 % of control | dose: 100.0 mg/kg/injection, schedule: Q01DX001 (ip), vehicle: acetone 98 % of control | dose: 100.0 mg/kg/injection, schedule: Q01DX009 (ip), vehicle: saline 92 % of control | dose: 100.0 mg/kg/injection, schedule: Q04DX003 (ip), vehicle: acetone 92 % of control | dose: 200.0 mg/kg/injection, schedule: Q01DX001 (ip), vehicle: acetone 102 % of control | dose: 200.0 mg/kg/injection, schedule: Q04DX003 (ip), vehicle: acetone 95 % of control

CCOP(=O)(OCC)C(=Cc1ccccc1)P(=O)(OCC)OCC
inactive: [2] 106 % of control | [3] 107 % of control | [4] 103 % of control | [5] 105 % of control | dose: 400.0 mg/kg/injection, schedule: Q01DX001 (ip), vehicle: saline with Tween-80 103 % of control | dose: 400.0 mg/kg/injection, schedule: Q01DX009 (ip), vehicle: saline with Tween-80 107 % of control

COC(=O)c1ccccc1NC1=NCCO1
inactive: dose: 50.0 mg/kg/injection, schedule: Q04DX002 (ip), vehicle: saline with Tween-80 98 % of control | dose: 100.0 mg/kg/injection, schedule: Q04DX002 (ip), vehicle: saline with Tween-80 104 % of control | dose: 200.0 mg/kg/injection, schedule: Q04DX002 (ip), vehicle: saline with Tween-80 91 % of control | dose: 400.0 mg/kg/injection, schedule: Q04DX002 (ip), vehicle: saline with Tween-80 88 % of control

O=C1c2c(O)cccc2C(Br)c2cccc(O)c21
inactive: dose: 100.0 mg/kg/injection, schedule: Q01DX001 (ip), vehicle: water 108 % of control | [6] 103 % of control | dose: 200.0 mg/kg/injection, schedule: Q01DX001 (ip), vehicle: water 108 % of control | [7] 100 % of control | dose: 300.0 mg/kg/injection, schedule: Q01DX001 (ip), vehicle: water 104 % of control | [8] 90 % of control

CN(C)c1ccc(C=O)cc1Br
inactive: [9] 98 % of control | [10] 100 % of control | dose: 200.0 mg/kg/injection, schedule: Q01DX009 (ip), vehicle: Klucel (hydroxypropylcellulose) (HPC) 96 % of control | [11] 103 % of control | dose: 400.0 mg/kg/injection, schedule: Q01DX009 (ip), vehicle: Klucel (hydroxypropylcellulose) (HPC) 96 % of control | [12] 101 % of control

CCC(=O)C1(c2ccccc2)CCNCC1
inactive: dose: 25.0 mg/kg/injection, schedule: Q01DX009 (ip), vehicle: Klucel (hydroxypropylcellulose) (HPC) 102 % of control | [13] 106 % of control | [9] 98 % of control and 118 % of control | dose: 200.0 mg/kg/injection, schedule: Q04DX002 (ip), vehicle: Klucel (hydroxypropylcellulose) (HPC) 106 % of control

Cc1ccc(S(=O)(=O)NNC(=O)c2cc(C)c(C)cc2N)cc1
inactive: [14] 97 % of control | [15] 101 % of control | [16] 95 % of control

CCOC(=O)CC(C)(C)NCc1ccccc1
inactive: [10] 96 % of control

CC(=O)Nc1ccc(N=NN(C)C)cc1
inactive: dose: 1.56 mg/kg/injection, schedule: Q04DX003 (ip), vehicle: saline with Tween-80 97 % of control and 101 % of control | dose: 3.12 mg/kg/injection, schedule: Q01DX001 (ip), vehicle: saline with Tween-80 101 % of control | dose: 3.12 mg/kg/injection, schedule: Q04DX003 (ip), vehicle: saline with Tween-80 97 % of control and 98 % of control | dose: 6.25 mg/kg/injection, schedule: Q01DX001 (ip), vehicle: saline with Tween-80 107 % of control | dose: 6.25 mg/kg/injection, schedule: Q04DX003 (ip), vehicle: saline with Tween-80 101 % of control and 104 % of control | dose: 12.5 mg/kg/injection, schedule: Q01DX001 (ip), vehicle: saline with Tween-80 108 % of control | dose: 12.5 mg/kg/injection, schedule: Q04DX003 (ip), vehicle: saline with Tween-80 100 % of control and 102 % of control | dose: 25.0 mg/kg/injection, schedule: Q01DX001 (ip), vehicle: saline with Tween-80 113 % of control

NC(=Nc1ccc(N=C(N)N[N+](=O)[O-])cc1)N[N+](=O)[O-]
inactive: dose: 25.0 mg/kg/injection, schedule: Q04DX002 (ip), vehicle: Klucel (hydroxypropylcellulose) (HPC) 107 % of control | dose: 50.0 mg/kg/injection, schedule: Q04DX002 (ip), vehicle: Klucel (hydroxypropylcellulose) (HPC) 96 % of control | dose: 100.0 mg/kg/injection, schedule: Q04DX002 (ip), vehicle: Klucel (hydroxypropylcellulose) (HPC) 96 % of control

O=C(N/N=C/c1ccc2c(c1)CCC2)c1ccccc1
inactive: [17] 92 % of control | [18] 90 % of control | [19] 88 % of control

C=CCOCC(O)CN(C)CCCC (centres undefined)
inactive: dose: 25.0 mg/kg/injection, schedule: Q04DX003 (ip), vehicle: saline 101 % of control | [13] 100 % of control | dose: 50.0 mg/kg/injection, schedule: Q04DX003 (ip), vehicle: saline 97 % of control | [9] 94 % of control | dose: 100.0 mg/kg/injection, schedule: Q04DX003 (ip), vehicle: saline 103 % of control and 91 % of control

O=C(O)c1cccnc1Cl
inactive: dose: 50.0 mg/kg/injection, schedule: Q01DX001 (ip), vehicle: saline 96 % of control | [14] 93 % of control | [10] 96 % of control | [17] 105 % of control | [15] 100 % of control | [11] 97 % of control | [18] 105 % of control | [16] 106 % of control | [12] 91 % of control | [19] 106 % of control

NC1CC2CCC1C2 (centres undefined)
inactive: dose: 50.0 mg/kg/injection, schedule: Q01DX001 (ip), vehicle: saline with Tween-80 98 % of control | dose: 50.0 mg/kg/injection, schedule: Q04DX002 (ip), vehicle: saline 93 % of control | [2] 98 % of control | dose: 100.0 mg/kg/injection, schedule: Q04DX002 (ip), vehicle: saline 100 % of control | [4] 103 % of control

C#CCO
inactive: dose: 12.0 mg/kg/injection, schedule: Q01DX009 (ip), vehicle: saline 107 % of control | dose: 25.0 mg/kg/injection, schedule: Q01DX009 (ip), vehicle: saline 110 % of control | [1] 94 % of control

O/C(=C/C(=S)S)c1ccco1
inactive: dose: 25.0 mg/kg/injection, schedule: Q01DX009 (ip), vehicle: water 87 % of control | dose: 50.0 mg/kg/injection, schedule: Q01DX009 (ip), vehicle: water 93 % of control | [6] 88 % of control | [7] 90 % of control | [8] 93 % of control

Cc1cc(N(CCCl)CCCl)ccc1C=NCCCCN=Cc1ccc(N(CCCl)CCCl)cc1C
inactive: dose: 50.0 mg/kg/injection, schedule: Q01DX001 (ip), vehicle: carboxymethylcellulose (CMC) 104 % of control | dose: 100.0 mg/kg/injection, schedule: Q01DX001 (ip), vehicle: carboxymethylcellulose (CMC) 106 % of control | dose: 200.0 mg/kg/injection, schedule: Q01DX001 (ip), vehicle: carboxymethylcellulose (CMC) 101 % of control | dose: 400.0 mg/kg/injection, schedule: Q01DX001 (ip), vehicle: carboxymethylcellulose (CMC) 101 % of control

CCC[N+](C)(C)C1CCCCC1
inactive: dose: 75.0 mg/kg/injection, schedule: Q01DX001 (ip), vehicle: saline 96 % of control and 94 % of control

CCCCCCCCOc1ccccn1
inactive: [3] 110 % of control | [17] 100 % of control | [5] 91 % of control | [18] 105 % of control | [19] 103 % of control
